Patent US12344610B2, “APOL1 inhibitors and methods of use” (Maze Therapeutics, Inc., priority 2022, dated 2025)
pEC50: −log10 of the molar value.

Assays:
[1] = system: HEK293 cells overexpressing APOL1 G2; test: APOL1 G2 HEK293 cell rescue assay (reversal of cell death caused by overexpression of APOL1); type: cell-based; conditions: Homo sapiens, HEK293, HEK293 overexpressing APOL1 G2; geometric mean of at least 2 assay runs; † = single assay run
Procedure: Unless otherwise specified, EC50 values are reported as the geometric mean of at least 2 assay runs on separate days. Each run represents the average of a technical replicate, where each compound was assayed twice in the same plate. A superscript t symbol indicates a value from the average of a technical replicate from a single assay run, where each compound was assayed twice in the same plate. Compounds in Table 40 are referred to by the corresponding Compound Number in Table 1, which is also referred to in the synthetic examples. When one or more of the numbered compounds are identified by stereochemistry (for example, (R)- or (S)-), the specific stereoisomer for which data is provided in Table 40 may be identified by the elution order of such compound as described in the synthetic examples. Absolute stereochemistry of such compounds may be identified by methods known in the art. For Table 40 below, n/a represents “not available”.
Rescue EC50 values reported in Table 40 below represent the half-maximal effective concentration for reversal of cell death caused by overexpression of APOL1.

[2] = system: HEK293 clonal cell line overexpressing APOL1 G1; test: APOL1 G1 HEK293 cell rescue assay (Example B3); type: cell-based; conditions: Homo sapiens, HEK293, HEK293 clonal line overexpressing APOL1 G1; geometric mean of at least 2 runs; † = single run; ¥ = concentration at 50% rescue estimated (no sigmoidal curve)
Procedure: Compounds were also assayed in a HEK293 clonal cell line overexpressing APOL1 G1 by a method similar to that shown in Example B2 above.
Unless otherwise specified, EC50 values are reported as the geometric mean of at least 2 assay runs on separate days. Each run represents the average of a technical replicate, where each compound was assayed twice in the same plate. A superscript † symbol indicates a value from the average of a technical replicate from a single assay run, where each compound was assayed twice in the same plate. A ¥ symbol represents compound concentration at 50% rescue estimated due to lack of sigmoidal curve preventing curve fitting. Compounds in Table 41 are referred to by the corresponding Compound Number in Table 1, which is also referred to in the synthetic examples. When one or more of the numbered compounds are identified by stereochemistry (for example, (R)- or (S)-), the specific stereoisomer for which data is provided in Table 41 may be identified by the elution order of such compound as described in the synthetic examples. Absolute stereochemistry of such compounds may be identified by methods known in the art. For Table 41 below, n/a represents “not available”.
Rescue EC50 values reported in Table 41 below represent the half-maximal effective concentration for reversal of cell death caused by overexpression of APOL1.

Q: With CC1(O)CC(c2ncc(OCCN3CCC4(CC3)C(=O)Nc3ccc(Cl)cc34)cn2)C1 (stereo not drawn) [Compound 373, 5-chloro-1′-(2-{[2-(3-hydroxy-3-methylcyclobutyl)pyrimidin-5-yl]oxy}ethyl)-1,2-dihydrospiro[indole-3,4′-piperidin]-2-one] as the compound, how does the pEC50 [1] read?
A: The pEC50 was 7.27.

Q: What about the pEC50 [2] of the same compound?
A: Its pEC50 is 6.88.

Q: C[C@]1(O)C[C@@H](n2c(=O)[nH]c3cc(OCCN4CCC5(CC4)C(=O)Nc4ccc(Cl)cc45)cnc32)C1 [Compound 374, 5-chloro-1′-[2-({2-oxo-3-[(cis)-3-hydroxy-3-methylcyclobutyl]-1H,2H,3H-imidazo[4,5-b]pyridin-6-yl}oxy)ethyl]-1,2-dihydrospiro[indole-3,4′-piperidin]-2-one] was tested. Which pEC50 [1] did it give?
A: The pEC50 was 7.00.

Q: What about the pEC50 [2] of the same compound?
A: Its pEC50 is 6.67.

Q: What does the source list for CC(O)c1ncc(OCCN2CCC3(CC2)C(=O)Nc2ccc(Cl)cc23)cc1C(F)(F)F (stereo not drawn) [Compound 399, 5-chloro-1′-(2-{[6-(1-hydroxyethyl)-5-(trifluoromethyl)pyridin-3-yl]oxy}ethyl)-1,2-dihydrospiro[indole-3,4′-piperidin]-2-one]?
A: pEC50 [1]: 7.30; pEC50 [2]: 6.93

Q: CS(=O)(=O)C1(c2ncc(OCCN3CCC4(CC3)C(=O)Nc3c(Cl)cc(Cl)cc34)cn2)CC1 [Compound 400, 5,7-dichloro-1′-(2-{[2-(1-methanesulfonylcyclopropyl)pyrimidin-5-yl]oxy}ethyl)-1,2-dihydrospiro[indole-3,4′-piperidin]-2-one] was tested. Which pEC50 [1] did it give?
A: Its pEC50 is 6.65.

Q: What about the pEC50 [2] of the same compound?
A: Its pEC50 is 6.17.

Q: With C[C@]1(O)C[C@@H](N2C(=O)CCc3cc(OCCN4CCC5(CC4)C(=O)Nc4c(Cl)cc(Cl)cc45)cnc32)C1 [Compound 409, 5,7-dichloro-1′-[2-({7-oxo-8-[(cis)-3-hydroxy-3-methylcyclobutyl]-5,6,7,8-tetrahydro-1,8-naphthyridin-3-yl}oxy)ethyl]-1,2-dihydrospiro[indole-3,4′-piperidin]-2-one] as the compound, how does the pEC50 [1] read?
A: The pEC50 was 7.15.

Q: What about the pEC50 [2] of the same compound?
A: The pEC50 was 6.87.

Q: With [2H]C([2H])([2H])N1C(=O)C2(CCN(CCOc3cnc(C4(S(C)(=O)=O)COC4)nc3)CC2)c2cc(Cl)ccc21 [Compound 422, 5-chloro-1′-(2-{[2-(3-methanesulfonyloxetan-3-yl)pyrimidin-5-yl]oxy}ethyl)-1-(^2H3)methyl-1,2-dihydrospiro[indole-3,4′-piperidin]-2-one] as the compound, how does the pEC50 [1] read?
A: The pEC50 was 7.20.

Q: What about the pEC50 [2] of the same compound?
A: The pEC50 was 6.78.

Q: With CC1(O)CC(n2ncc3cc(OCCN4CCC5(CC4)C(=O)Nc4ccc(C#N)cc45)cnc32)C1 (stereo not drawn) [Compound 436, 1′-(2-{[1-(3-hydroxy-3-methylcyclobutyl)-1H-pyrazolo[3,4-b]pyridin-5-yl]oxy}ethyl)-2-oxo-1,2-dihydrospiro[indole-3,4′-piperidine]-5-carbonitrile] as the compound, how does the pEC50 [1] read?
A: Its pEC50 is 7.10.

Q: And the pEC50 [2]?
A: Its pEC50 is 6.94.

Q: With C[C@]1(O)C[C@H](n2ncc3cc(OCCN4CCC5(CC4)C(=O)Nc4ccc(C#N)cc45)cnc32)C1 [Compound 438, 2-oxo-1′-[2-({1-[(trans)-3-hydroxy-3-methylcyclobutyl]-1H-pyrazolo[3,4-b]pyridin-5-yl}oxy)ethyl]-1,2-dihydrospiro[indole-3,4′-piperidine]-5-carbonitrile] as the compound, how does the pEC50 [1] read?
A: The pEC50 was 6.69.

Q: And the pEC50 [2]?
A: The pEC50 was 6.62.

Q: Which results are given for CS(=O)(=O)N1CCC(c2ccc(OCCN3CCC4(CC3)C(=O)Nc3ccc(Cl)cc34)cc2)CC1 [Compound 444, 5-chloro-1′-{2-[4-(1-methanesulfonylpiperidin-4-yl)phenoxy]ethyl}-1,2-dihydrospiro[indole-3,4′-piperidin]-2-one]?
A: pEC50 [1]: 7.65; pEC50 [2]: 7.14

Q: How did the pEC50 [1] turn out when CC(C)(O)CN1C(=O)CCc2cc(OCCN3CCC4(CC3)C(=O)Nc3ccc(Cl)cc34)cnc21 [Compound 452, 5-chloro-1′-(2-{[8-(2-hydroxy-2-methylpropyl)-7-oxo-5,6,7,8-tetrahydro-1,8-naphthyridin-3-yl]oxy}ethyl)-1,2-dihydrospiro[indole-3,4′-piperidin]-2-one] was run?
A: Its pEC50 is 7.55.

Q: And the pEC50 [2]?
A: The pEC50 was 7.07.

Q: With C[C@]1(O)C[C@@H](N2C(=O)NCc3cc(OCCN4CCC5(CC4)C(=O)Nc4ccc(C#N)cc45)cc(C(F)(F)F)c32)C1 [Compound 457, 2-oxo-1′-[2-({2-oxo-1-[(cis)-3-hydroxy-3-methylcyclobutyl]-8-(trifluoromethyl)-1,2,3,4-tetrahydroquinazolin-6-yl}oxy)ethyl]-1,2-dihydrospiro[indole-3,4′-piperidine]-5-carbonitrile] as the compound, how does the pEC50 [1] read?
A: Its pEC50 is 6.56.

Q: What about the pEC50 [2] of the same compound?
A: Its pEC50 is < 5.48.

Q: How did the pEC50 [1] turn out when C[C@]1(O)C[C@@H](n2cnc3nc(OCCN4CCC5(CC4)C(=O)Nc4ccc(Cl)cc45)cc(C(F)(F)F)c32)C1 [Compound 471, 5-chloro-1′-[2-({1-[(cis)-3-hydroxy-3-methylcyclobutyl]-7-(trifluoromethyl)-1H-imidazo[4,5-b]pyridin-5-yl}oxy)ethyl]-1,2-dihydrospiro[indole-3,4′-piperidin]-2-one] was run?
A: The pEC50 was < 5.48.

Q: What about the pEC50 [2] of the same compound?
A: The pEC50 was < 5.48.
